{"source": "patent US20210380994A1", "about": "“LACTOCOCCUS LACTIS EXPRESSION SYSTEM FOR DELIVERING PROTEINS EFFICACIOUS FOR THE TREATMENT OF EPITHELIAL BARRIER FUNCTION DISORDERS” (Second Genome, Inc., priority 2018, published 2021)", "key": {"[1]": {"system": "human colonic epithelial cells (HCT8 enterocytes and HT29-MTX goblet cells)", "assay": "trans-epithelial electrical resistance (TEER) assay, epithelial/monocyte co-culture disrupted by heat killed E. coli", "format": "cell-based", "settings": "staurosporine 100 nM, control compound", "description": "Assays were performed as described below in trans-well plates where co-cultures of multiple cell types were performed utilizing a permeable membrane to separate cells. In the apical (top) chamber, human colonic epithelial cells, consisting of a mixture of enterocytes and goblet cells, were cultured until cells obtained tight junction formation and barrier function capacity as assessed by measurement of trans-epithelial electrical resistance (TEER). In the basolateral chamber, monocytes were cultured separately. Epithelial […] were primed with inflammatory cytokines. The assays measured the effect of a therapeutic protein, e.g., SG-11, on epithelial barrier function, muc2 gene expression, and production of cytokines.\nCell culture. The HCT8 human enterocyte cell line (ATCC Cat. No. CCL-244) was maintained in RPMI-1640 medium supplemented with 10% fetal bovine seam, 100 IU/ml penicillin, 100 ? g/ml streptomycin, 10 ? g/ml gentamicin and 0.25 μg/ml amphotericin (cRPMI). […]\nEpithelial cell culture. […] Epithelial cells were trypsinized from culture flasks and viable cells determined by trypan blue counting. […]\nCo-culture assay. […] TEER readings were measured after the IFN-© treatment and were used as the pre-treatment TEER value. […]"}, "[2]": {"system": "HCT8 enterocyte and HT29-MTX goblet cell lines", "assay": "Oris Cell Migration assay (epithelial cell wound healing)", "format": "cell-based, human", "settings": "48 hours; SG-11 1 μg/ml, EGF 30 ng/ml, staurosporine 100 nM; FIG. 2", "source_text": "The 96 well Oris Cell Migration assay containing plugs preventing cell attachment in the center of each well was used according to the manufacturer's instructions (Platypus Technologies. Madison, Wis.).\nThe migration assay plates were warmed to room temperature prior to use and plugs were removed rom 100% confluence wells prior to cell addition. The HCT8 enterocyte and HT29-MTX goblet cell lines were used at a 9:1 ratio with a total of 5×10^4 total cells added per well (4.5×10^4 HCT8 cells and 0.5×10^4 HT29-MTX cells). Cells were incubated at 37° C.+5% CO2 for 24 hours. Plugs were then removed from all control and sample wells. Control wells included cells treated with the diluent vehicle as the blank, 30 ng/ml epidermal growth factor (EGF) as the positive control, and 100 nM staurosporine as the negative control, all diluted in cRPMI. Sample wells contained SG-11 protein (SEQ ID NO:9) at a concentration of 1 μg/ml diluted in eRPMI. 100% and 0% wells were cultured in cRPMI. […] The green fluorescent viability dye Calcenin AM was added to all wells at a concentration of 0.5 μg/min PBS containing 0.9 mM CaCl2 and 0.5 mM MgCl2, incubated for 30 min at 37° C.+5% CO2, the dye was removed and cells were washed in PBS containing 0.9 mM CaCl2 and 0.5 mM MgCl2, and fluorescence was measured. […] Samples were normalized between 100% and 0% samples and values expressed as a percent growth."}, "[3]": {"system": "C57BL/6 mice treated with DSS", "assay": "therapeutic DSS model of inflammatory bowel disease, treatment after 7 days DSS (Examples 5, 13B)", "format": "in vivo", "description": "Following a 7-day acclimation period, the mice were provided with drinking water containing 2.5% DSS for 7 days. Fresh 2.5% DSS water was prepared every 2 days during the 7 day DSS administration. For this therapeutic DSS study, SG-11 used to treat the animals was fused at its N-terminus to a FLAG Tag (DYKDDDDK; SEQ ID NO:32).\nOn day 7, normal drinking water was restored and i.p. treatments of 50 nmole/kg of SG-11 ([…]) or Gly2-GLP2 (0.2 mg/kg) were initiated. Treatments were administered twice a day (b.i.d.), with a morning and evening dose (every 8 and 16 hours) for six days.\nBody weight was measured daily during the morning treatment. The colon tissue was then harvested and length was measured in centimeters and the tissue was weighed. Fecal material was flushed from the colon and residual PBS removed by gently running the colon tissue through a pair of forceps. The colon tissue was then weighed and colon weight to length ratio in mg/mm was determined. Following weight measurements proximal and distal colon tissue was banked for RNA and protein analysis and the remaining tissues was fixed in 10% neutral buffered formalin for histopathology. Statistical analysis was performed by a one-way ANOVA compared to DSS+vehicle for serum 4KDa-FITC translocation, scrum LBP concentrations, colon length, and colon weight to length ratio, while a two-way ANOVA was performed for analysis of body weight. In all analysis, a Fisher's LSD test for multiple comparisons was used. Graphs represent data pooled from two experiments, and are plotted as mean±SEM.\nHistopathology analysis was performed on proximal and distal colon tissues from the therapeutic DSS model described above. Proximal (FIG. 13A) and distal (FIG. 13B) colon scores (range 0-4) are presented as well as the total score for the colon which represents the sum of proximal and distal colon scores (Range 0-8) (FIG. 13C). LMA=Loss of mucosal architecture, Edema=Edema, INF=Inflammation, TMI=Transmural inflammation, MH=Mucosal hyperplasia, DYS=Dysplasia. Graphs represent data pooled from two independent experiments, and are plotted as mean±SEM. Statistical analysis was performed by a one-way ANOVA compared to DSS+vehicle followed by a Fisher's LSD test for multiple comparisons. […]\nAt the end of each DSS model study, mice were fasted for 4 hours and then orally gavaged with 600 mg/kg 4KDa dextran labeled with FITC [4KDa-FITC]. One hour after the 4KDa-FITC gavage, mice were euthanized, blood was collected, and FITC signal was measured in serum. […]\nUpon completion of the OSS models above. LBP levels were measured as an inflammation centric readout of barrier function following the protocol detailed in Example 5. […] LPS binding protein (LBP) levels were measured in serum using a commercially available ELISA Kit (Enzo Lift Sciences)."}, "[4]": {"system": "C57BL/6 mice treated with DSS", "assay": "concurrent (prophylactic) DSS model of inflammatory bowel disease (Examples 4, 13A)", "format": "in vivo", "settings": "Example 4; 50 nmoles/kg i.p. b.i.d.", "description": "On day six, mice were fasted for four hours and then orally gavaged with 600 mg/kg 4KDa dextran labeled with fluorescein isothiocyanate (FITC) [4KDa-FITC]. One hour after the 4KDa-FITC gavage, mice were euthanized, blood was collected, and FITC signal was measured in serum. […] The magnitude of 4KDa-FITC dextran translocation observed for SG-11 was similar to the positive control of Gly2-GLP2. Results are shown in FIG. 3, and are presented as mean±SEM. The graph in FIG. 3 represents data pooled from 3 independent experiments, each using 10 mice (n=30).\nSG-11 was also assessed for its effects on the levels of lipopolysaccharide (LPS) binding protein (LBP) in the blood of the DSS animal with and without SG-11 administration. LBP, which has been linked to clinical disease activity in subjects with inflammatory bowel disease, was also measured by […] in the serum of mice tested in the DSS model described in this Example. […] Results are shown in FIG. 4, and are presented as mean±SEM. The graph in FIG. 4 represents data pooled from 3 independent experiments (n=30; each experiment using 10 mice).\nBody weight was measured daily from mice included in the DSS model described in this Example. Percent change from starting weight on day 0 was determined for each mouse. […]\nColon length was measured in mice included in the DSS model described above. […]"}, "[5]": {"settings": "mouse, in vivo, ip", "experimental": "Eight-week old C57BL/6 mice were housed 5 animals per cage and given food and water ad libitum for 7 days. Following the 7-day acclimation period, treatments were initiated concurrently with addition of 2.5% DSS to the drinking water. […] The mice were treated with 2.5% DSS in their drinking water for 6 days. […] Fresh 2.5% DSS drinking water was prepared every 2 days."}}}
{"compound": "CN[C@@H]1C[C@H]2O[C@@](C)([C@@H]1OC)n1c3ccccc3c3c4c(c5c6ccccc6n2c5c31)C(=O)NC4", "note": "[staurosporine, reference compound]", "values": [{"measurement": "TEER", "setting": "[1]", "result": "drastic decrease in TEER"}, {"measurement": "percent growth (epithelial cell wound healing)", "setting": "[2]", "result": "suppressing cell proliferation"}]}
{"compound": "Gly2-GLP2 [reference compound]", "values": [{"measurement": "histopathology: inflammation and transmural inflammation scores", "setting": "[3]; Example 5", "result": "no change"}, {"measurement": "histopathology: loss of mucosal architecture score", "setting": "[3]; Example 5", "result": "modest, but significant reduction"}, {"measurement": "serum LBP", "setting": "[3]; Example 5, 50 nmole/kg i.p. b.i.d. six days after 7 days DSS, FLAG-tagged SG-11", "result": "no reduction in LBP"}, {"measurement": "colon weight to length ratio", "setting": "[3]; Example 13B, p<0.01", "result": "did not"}, {"measurement": "colon length", "setting": "[4]", "result": "significant improvement in colon length"}, {"measurement": "colon weight to length ratio", "setting": "[4]", "result": "significant improvement in colon weight to length ratios"}]}
{"compound": "EGF: epidermal growth factor, positive control (NSDSECPLSHDGYCLHDGVCMYIEALDKYACNCVVGYIGERCQYRDLKWWELR; UniProt P01133 971-1023, looked up)", "values": [{"measurement": "percent growth (epithelial cell wound healing)", "setting": "[2]", "result": "increasing proliferation"}]}
{"compound": "fluorescently labeled bovine serum albumin: fluorescently labeled bovine serum albumin used for tracking studies", "values": [{"measurement": "time at which protein reached the colon", "setting": "[5]", "result": 6, "unit": "h"}]}
